# Laboratory results published in publication PMC10969092, “Characterization of Lysophospholipase D Activity in Mammalian Cell Membranes” (Cells, 2024).
# pEC50: −log10 of the molar value. Where two headings read alike, the source gives them in different places.
# Legend:
# [1] = biological target: T1, PLD (Rattus norvegicus, UniProt P70498); experiment: In vitro fluorescent PLD assay in cell membranes (B-PC substrate with butanol, B-PBt product); type: biochemical
# T1 construct: PC12K membranes were incubated with either B-PC (for PLD assay) or commercial B-lyso-PC (for lyso-PLD assay); endogenous in cells; host or cells: PC12K and A7r5 cell membranes (100,000 x g pellet)
# T1 sequence (P70498 whole entry): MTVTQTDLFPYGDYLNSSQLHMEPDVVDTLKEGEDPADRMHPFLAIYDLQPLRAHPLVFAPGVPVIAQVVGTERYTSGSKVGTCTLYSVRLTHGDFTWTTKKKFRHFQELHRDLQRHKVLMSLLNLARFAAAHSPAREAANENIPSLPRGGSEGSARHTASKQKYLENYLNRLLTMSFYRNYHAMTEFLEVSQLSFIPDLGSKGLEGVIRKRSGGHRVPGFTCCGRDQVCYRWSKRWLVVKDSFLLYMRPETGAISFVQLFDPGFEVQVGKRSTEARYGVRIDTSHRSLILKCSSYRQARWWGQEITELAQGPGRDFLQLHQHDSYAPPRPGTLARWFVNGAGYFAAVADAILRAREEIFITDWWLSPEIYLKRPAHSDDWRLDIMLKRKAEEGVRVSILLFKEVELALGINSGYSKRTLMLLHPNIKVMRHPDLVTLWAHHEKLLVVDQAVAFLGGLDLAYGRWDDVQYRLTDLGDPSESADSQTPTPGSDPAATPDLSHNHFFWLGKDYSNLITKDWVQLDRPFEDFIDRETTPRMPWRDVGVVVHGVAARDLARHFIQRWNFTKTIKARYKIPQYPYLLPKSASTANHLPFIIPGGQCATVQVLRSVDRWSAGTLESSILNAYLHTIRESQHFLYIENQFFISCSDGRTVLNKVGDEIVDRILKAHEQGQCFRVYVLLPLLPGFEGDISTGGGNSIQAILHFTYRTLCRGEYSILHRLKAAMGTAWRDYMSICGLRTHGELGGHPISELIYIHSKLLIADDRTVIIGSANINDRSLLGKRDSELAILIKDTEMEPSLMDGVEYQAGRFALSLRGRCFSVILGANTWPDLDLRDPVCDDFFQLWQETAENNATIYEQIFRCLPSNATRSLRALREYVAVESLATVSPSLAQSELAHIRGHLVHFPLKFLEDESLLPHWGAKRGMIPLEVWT
# [2] = system: lyso-PLD; experiment: In vitro membrane lyso-PLD assay (B-lyso-PC substrate, B-LPA product); type: biochemical, rat
# [3] = system: lyso-PLD; type: biochemical, human; details: PC-3 membranes; for pEC50: single-site competition fit, read-out: EC50 for inhibiting B-lyso-PC conversion to B-LPA; for Ability to compete with B-lyso-PC for utilization by lyso-PLD: up to 4.6 mM
# [4] = system: PLD; experiment: PLD activity in intact cells; type: cell-based; details: multiple cell types, varying experimental conditions
# [5] = system: PLA2
# [6] = system: PLC from Bacillus cereus; details: cited from earlier work
# [7] = system: cabbage PLD; details: cited from earlier work
# [8] = system: PLD; design: method as in PMID 9655185; details: cited from earlier work
compound,measurement,setting,value
[Cl-].[Cl-].[Mg+2] [magnesium chloride],Inhibition of PLD in screening assays,[1],did not inhibit PLD
same,Stimulation of lyso-PLD activity,[2],did not stimulate lyso-PLD activity
CCCCCCCCCCCCCCCCCCOC[C@@H](O)COP(=O)([O-])OCC[N+](C)(C)C [C18-lyso-PAF],pEC50,[3],~3.40
[Na+].[Na+].[O]=[Mo](=[O])([O-])[O-] [sodium molybdate],Inhibition of PLD in screening assays,[1]; concentrations of 1–10 mM,did not inhibit PLD
CCCCCCCCCCCCCCCCOC[C@@H](O)COP(=O)([O-])OCC[N+](C)(C)C [C16-lyso-PAF],pEC50,[3],~3.40
O=P(O)(O)OC(CO)CO [β-glycerophosphate],Inhibition of PLD in screening assays,[1],did not inhibit PLD
O=S(=O)([O-])[O-].[Zn+2] [zinc sulfate],Inhibition of PLD in screening assays,[1],did not inhibit PLD
CCCCCCCCCCCCCCCCCC(=O)OC[C@@H](O)COP(=O)([O-])OCC[N+](C)(C)C [C18-lyso-PC],pEC50,[3],~3.52
sodium orthovanadate,B-PBt levels in kinetic study,"[1]; 1 mM added after 10 min, PC12K membranes, B-PC substrate",B-PBt levels declined
same,Effect on PLD activity (production of B-PBt),"[1]; 1 mM, A7r5 membranes, B-PC substrate",profound inhibition of PLD activity
same,Effect on lyso-PLD activity (B-LPA from B-lyso-PC),[2],did not inhibit
same,Production of LPA in kinetic study,[2],not significantly affected
same,Inhibition of PLD in intact cells,[4],"failed to show that vanadate, pervanadate, or iodate inhibits PLD"
same,B-lyso-PBt production in kinetic study,[5],continued but at a reduced rate
same,Effect on PLA2 activity (generation of B-lyso-PC and B-lyso-PBt from B-PC),[5],did not inhibit
same,lyso-PC accumulation in kinetic study,[5],did not affect lyso-PC accumulation
same,Inhibition of PLC from Bacillus cereus,[6],inhibit a PLC from Bacillus cereus
same,Direct inhibition of cabbage PLD,[7],directly inhibit cabbage PLD
O=C([O-])C(=O)[O-].[K+].[K+] [potassium oxalate],Inhibition of PLD in screening assays,[1]; concentrations of 1–10 mM,did not inhibit PLD
pervanadate,Inhibition of PLD in intact cells,[4],"failed to show that vanadate, pervanadate, or iodate inhibits PLD"
same,Effect on PLD in intact endothelial cells,[8],activate PLD
lyso-phosphatidylethanol,Ability to compete with B-lyso-PC for utilization by lyso-PLD,[3],least effective
O=S(=O)([O-])[O-].[Cu+2] [copper sulfate],Inhibition of PLD in screening assays,[1],did not inhibit PLD
O=S(=O)([O-])[O-].[Mg+2] [magnesium sulfate],Inhibition of PLD in screening assays,[1],did not inhibit PLD
sodium tungstate,Inhibition of PLD in screening assays,[1]; concentrations of 1–10 mM,did not inhibit PLD
CCCCCCCCCCCCCCCC(=O)OC[C@@H](O)COP(=O)([O-])OCC[N+](C)(C)C [C16-lyso-PC],pEC50,[3],~3.52
C[S+](C)[O-] [dimethylsulfoxide],Effect on PLD activity,"[1]; 8%, cell line not stated",completely inhibited
same,Effect on lyso-PLD activity,"[2]; 8%, cell line not stated",relatively insensitive
O=C([O-])C(=O)[O-].[Na+].[Na+] [sodium oxalate],Inhibition of PLD in screening assays,[1]; concentrations of 1–10 mM,did not inhibit PLD
Lyso-phosphatidylserine,Ability to compete with B-lyso-PC for utilization by lyso-PLD,[3],poor competitor
O=[N+]([O-])c1ccc(OP(=O)(O)O)cc1 [para-nitrophenol phosphate],Inhibition of PLD in screening assays,[1],did not inhibit PLD
CCCCCCCC/C=C\CCCCCCCC(=O)OC[C@@H](O)COP(=O)([O-])OCC[N+](C)(C)C [C18:1-lyso-PC],pEC50,[3],~3.52
Nc1ncnc2c1ncn2[C@@H]1O[C@H](COP(=O)(O)OP(=O)(O)OP(=O)(O)O)[C@@H](O)[C@H]1O [ATP],Stimulation of lyso-PLD activity,[2],did not stimulate lyso-PLD activity
